Results reported in patent US8614220B2, “Substituted pyrazolo-quinazoline derivatives, process for their preparation and their use as kinase inhibitors” (priority 2006, dated 2013).
pIC50: −log10 of the molar value.

What follows are compounds tested on A2780 human ovarian cancer cells (assay: In vitro cell proliferation assay (CellTiter-Glo, 72 hours)).
Assay type: cell-based
Procedure: In Vitro Cell Proliferation Assay
A2780 human ovarian and MCF7 human breast cancer cells (1250 cells/well) were seeded in white 384 well-plates in complete medium (RPMI1640 or EMEM plus 10% Fetal bovine serum) and treated with compounds dissolved in 0.1% DMSO, 24 h after seeding. The cells were incubated at 37° C. and 5% CO2 and after 72 hours the plates were processed using CellTiter-Glo assay (Promega) following the manufacturer's instruction.
CellTiter-Glo is a homogenous method based on the quantification of the ATP present, an indicator of metabolitically active cells. ATP is quantified using a system based on luciferase and D-luciferin resulting into light generation. The luminescent signal is proportional to the number of cells present in culture.
Briefly 25 microL/well reagent solution are added to each wells and after 5 minutes shacking microplates are red by a luminometer. The luminescent signal is proportional to the number of cells present in culture.

| Compound | pIC50 |
| --- | --- |
| COc1ccc(CO)cc1Nc1ncc2c(n1)-c1c(c(C(N)=O)nn1C)CC2 [Code A47B1C1Z] | 6.83 |
| NC(=O)c1nn(CCF)c2c1CCc1cnc(Nc3ccccc3OC(F)(F)F)nc1-2 [Code A45B2C1Z] | 6.30 |
| CN(C)CCCN1CCN(c2ccc(OC(F)(F)F)c(Nc3ncc4c(n3)-c3c(c(C(N)=O)nn3C)CC4)c2)CC1 [Code A101B1C1Z] | 6.28 |
| Cc1ccc(N2CCN(C)CC2)cc1Nc1ncc2c(n1)-c1c(c(C(=O)O)nn1C)CC2 [Code A98B1C3Z] | 5.89 |
